The values below come from patent US20120214847A1, “2-[1-PHENYL-5-HYDROXY-4a-SUBSTITUTED-HEXAHYDROCYCLOPENTA[F]INDAZOL-5-YL]ETHYL PHENYL DERIVATIVES AS GLUCOCORTICOID RECEPTOR LIGANDS” (Merck Sharp & Dohme Corp., priority 2009, published 2012).

pKi: −log10 of the molar value.

Broadly, the pKi is the Ki on a negative log10 scale, so that one unit is a factor of ten. A lower pKi goes with a high Ki.

The target in this test is T1, glucocorticoid receptor (Homo sapiens, UniProt P04150).
T1 construct: endogenous in cells; host or cells: HeLa (ATCC) cell lysate supernatant
T1 sequence (P04150 1-777): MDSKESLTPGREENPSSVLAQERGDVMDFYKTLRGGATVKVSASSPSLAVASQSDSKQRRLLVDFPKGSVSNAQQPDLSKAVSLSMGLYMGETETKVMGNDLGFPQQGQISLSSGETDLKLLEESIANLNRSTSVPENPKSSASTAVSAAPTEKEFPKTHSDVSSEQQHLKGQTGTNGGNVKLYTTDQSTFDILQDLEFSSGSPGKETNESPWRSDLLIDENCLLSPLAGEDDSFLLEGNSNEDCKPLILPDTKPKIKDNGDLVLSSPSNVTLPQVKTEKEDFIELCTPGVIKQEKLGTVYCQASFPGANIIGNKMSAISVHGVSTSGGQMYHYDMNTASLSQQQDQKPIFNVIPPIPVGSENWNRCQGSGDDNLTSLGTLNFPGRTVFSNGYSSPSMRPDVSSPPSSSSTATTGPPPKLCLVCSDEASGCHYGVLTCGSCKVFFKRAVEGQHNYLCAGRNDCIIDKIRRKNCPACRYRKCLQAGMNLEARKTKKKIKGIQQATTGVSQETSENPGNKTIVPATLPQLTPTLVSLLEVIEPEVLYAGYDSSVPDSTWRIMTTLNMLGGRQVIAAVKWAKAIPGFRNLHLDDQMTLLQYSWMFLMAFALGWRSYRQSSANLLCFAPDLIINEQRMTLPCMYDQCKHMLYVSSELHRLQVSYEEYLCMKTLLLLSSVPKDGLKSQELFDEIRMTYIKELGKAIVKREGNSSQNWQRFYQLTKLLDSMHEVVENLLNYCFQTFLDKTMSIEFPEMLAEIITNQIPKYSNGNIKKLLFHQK
The test is described as follows: Ligand binding assay (GRBind), 3H-dexamethasone displacement in HeLa cell lysate. The settings on record: 3H-DEX tracer. In outline: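 Cytosolic supernatant from HeLa cells in TEGM buffer (pH 7.2, with molybdate) was incubated overnight at 4 °C with 3H-dexamethasone (6 nM trace solution) and serially diluted compound, with 2% ethanol. Bound receptor was captured on hydroxylapatite, filtered and counted by scintillation. IC50s were calculated using dexamethasone as reference.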

Consider `N#Cc1ccccc1CC[C@]1(O)CCC2=Cc3c(cnn3-c3ccccc3)C[C@@]21C1CC1` [Example 27, 2-{2-[(4aR,5R)-4a-Cyclopropyl-5-hydroxy-1-phenyl-1,4,4a,5,6,7-hexahydrocyclopenta[f]indazol-5-yl]ethyl}benzonitrile], for which the pKi is 9.00.
As for `CCS(=O)(=O)c1ccccc1CC[C@]1(O)CCC2=Cc3c(cnn3-c3ccc(F)cc3)C[C@@]21C1CC1` [Example 59, (4aR,5R)-4a-Cyclopropyl-5-{2-[2-(ethylsulfonyl)phenyl]ethyl}-1-(4-fluorophenyl)-1,4,4a,5,6,7-hexahydrocyclopenta[f]indazol-5-ol], the figure is 8.87; as for `CC[C@]12Cc3cnn(-c4ccc(F)cc4)c3C=C1CC[C@@]2(O)CCc1ccccn1` [Example 16, (4aS,5R)-4a-Ethyl-1-(4-fluorophenyl)-5-[2-(pyridin-2-yl)ethyl]-1,4,4a,5,6,7-hexahydrocyclopenta[f]indazol-5-ol], 8.65; as for `CC[C@]12Cc3cnn(-c4ccc(F)cc4)c3C=C1CC[C@@]2(O)CCc1cccc(OC)c1C(N)=O` [Example 37, 2-{2-[(4aS,5R)-4a-Ethyl-1-(4-fluorophenyl)-5-hydroxy-1,4,4a,5,6,7-hexahydrocyclopenta[f]indazol-5-yl]ethyl}-6-methoxybenzamide], 8.69.
`CC[C@]12Cc3cnn(-c4ccc(F)cc4)c3C=C1CC[C@@]2(O)CC(O)c1ccc(F)cn1` (single isomer, unassigned) [Example 69b] had a pKi of 8.54.
For `CC[C@]12Cc3cnn(-c4ccccc4)c3C=C1CC[C@@]2(O)CC(O)c1ccccn1` (single isomer, unassigned) [Example 67b] the value was 8.26; for `CC[C@]12Cc3cnn(-c4ccc(F)cc4)c3C=C1CC[C@@]2(O)CCc1ncccc1F` [Example 17, (4aS,5R)-4a-Ethyl-1-(4-fluorophenyl)-5-[2-(3-fluoropyridin-2-yl)ethyl]-1,4,4a,5,6,7-hexahydrocyclopenta[f]indazol-5-ol], 8.84.
On to `CC[C@]12Cc3cnn(-c4ccc(F)cc4)c3C=C1CC[C@@]2(O)CCc1nccc(OC)c1CC(N)=O` [Example 64, 2-(2-{2-[(4aS,5R)-4a-Ethyl-1-(4-fluorophenyl)-5-hydroxy-1,4,4a,5,6,7-hexahydrocyclopenta[f]indazol-5-yl]ethyl}-4-methoxypyridin-3-yl)acetamide], for which the pKi is 7.94.
`CC[C@]12Cc3cnn(-c4ccc(F)cc4)c3C=C1CC[C@@]2(O)CCc1cc(C(F)(F)F)ccn1` [Example 34, (4aS,5R)-4a-Ethyl-1-(4-fluorophenyl)-5-{2-[4-(trifluoromethyl)pyridin-2-yl]ethyl}-1,4,4a,5,6,7-hexahydrocyclopenta[f]indazol-5-ol] had a negative-log Ki (pKi) of 8.65.
`CC[C@]12Cc3cnn(-c4cccnc4)c3C=C1CC[C@@]2(O)CCc1ccc(F)cc1C#N` [Example 9, 2-{2-[(4aS,5R)-4a-Ethyl-5-hydroxy-1-(pyridin-3-yl)-1,4,4a,5,6,7-hexahydrocyclopenta[f]indazol-5-yl]ethyl}-5-fluorobenzonitrile]: the pKi was 8.70.
As to `NC(=O)c1c(C(F)(F)F)ccnc1CC[C@]1(O)CCC2=Cc3c(cnn3-c3ccc(F)cc3)C[C@@]21C1CC1` [Example 55, 2-{2-[(4aR,5R)-4a-Cyclopropyl-1-(4-fluorophenyl)-5-hydroxy-1,4,4a,5,6,7-hexahydrocyclopenta[f]indaozol-5-yl]ethyl}-4-(trifluoromethyl)pyridine-3-carboxamide], the pKi is 8.65.
`CC[C@]12Cc3cnn(-c4ccc(F)cc4)c3C=C1CC[C@@]2(O)CCc1ccc(F)cn1` [Example 19, (4aS,5R)-4a-Ethyl-1-(4-fluorophenyl)-5-[2-(5-fluoropyridin-2-yl)ethyl]-1,4,4a,5,6,7-hexahydrocyclopenta[f]indazol-5-ol] showed a pKi of 8.60.
